ChEMBL document CHEMBL1201862, “PubChem BioAssay data set” (2004)
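Grown in 96-well plates, cells were treated for 48 hours with each compound at five concentrations. Insufficient inhibition: endpoint recorded as highest concentration tested. GI50 marks 50% less growth.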 Activity calls are given as the source filed them. Rule as the data show it: active = GI50 up to about 1.1 µM and inactive = higher.

Tests used:
Experiment in all cases: NCI anticancer screen, dose series, 48 h
[1] = system: CAKI-1
[2] = system: TK-10
[3] = system: NCI/ADR-RES
[4] = system: RXF 393
[5] = system: NCI-H23
[6] = system: UO-31
[7] = system: SW-620
[8] = system: SK-MEL-5
[9] = system: HOP-92
[10] = system: EKVX
[11] = system: K562
[12] = system: UACC-62
[13] = system: BT-549
[14] = system: RPMI-8226
[15] = system: MDA-MB-231
[16] = system: HCC 2998
[17] = system: IGROV-1
[18] = system: OVCAR-4

Compound	GI50 [1]	GI50 [2]	GI50 [3]	GI50 [4]	GI50 [5]	GI50 [6]	GI50 [7]	GI50 [8]	GI50 [9]	GI50 [10]	GI50 [11]	GI50 [12]	GI50 [13]	GI50 [14]	GI50 [15]	GI50 [16]	GI50 [17]	GI50 [18]
O=S(=O)(O)c1ccc(/N=N/c2ccc(/N=N/c3c(O)ccc4cc(S(=O)(=O)O)ccc34)cc2)cc1	> 100 µM (inactive)	> 100 µM (inactive)	> 100 µM (inactive)	> 100 µM (inactive)	> 100 µM (inactive)	53.3 µM (inactive)	> 100 µM (inactive)	> 100 µM (inactive)	> 100 µM (inactive)	> 100 µM (inactive)	> 100 µM (inactive)	> 100 µM (inactive)	> 100 µM (inactive)	> 100 µM (inactive)	> 100 µM (inactive)	> 100 µM (inactive)	> 100 µM (inactive)	–
Cc1sc(C)c2c1C(=O)CC2N (configuration not stated)	15.1 µM (inactive)	19.1 µM (inactive)	50.4 µM (inactive)	16.3 µM (inactive)	32.1 µM (inactive)	15.6 µM (inactive)	6 µM (inactive)	46.3 µM (inactive)	18.5 µM (inactive)	44.9 µM (inactive)	4.85 µM (inactive)	75.3 µM (inactive)	20 µM (inactive)	2.7 µM (inactive)	22.7 µM (inactive)	19.3 µM (inactive)	34.7 µM (inactive)	28 µM (inactive)
COC(=O)c1cc(C(=CCC[C@H]2CC[C@@]3(C)C(CCC4C3CC[C@@]3(C)C4CC[C@@H]3C(C)CCCC(C)C)C2)c2cc(Cl)c(O)c(C(=O)OC)c2)cc(Cl)c1O (some centres not stated)	> 10 µM (inactive)	> 10 µM (inactive)	> 10 µM (inactive)	> 10 µM (inactive)	> 10 µM (inactive)	> 10 µM (inactive)	> 10 µM (inactive)	> 10 µM (inactive)	> 10 µM (inactive)	> 10 µM (inactive)	> 10 µM (inactive)	> 10 µM (inactive)	> 10 µM (inactive)	> 10 µM (inactive)	> 10 µM (inactive)	> 10 µM (inactive)	> 10 µM (inactive)	> 10 µM (inactive)
CC(C)c1ccc(/C=C2/C=C(c3ccc4ccccc4c3)OC2=O)cc1	> 82.4 µM (inactive)	> 70.3 µM (inactive)	39.5 µM (inactive)	> 81.1 µM (inactive)	38.7 µM (inactive)	> 76.2 µM (inactive)	> 86.5 µM (inactive)	15.2 µM (inactive)	37.8 µM (inactive)	40 µM (inactive)	25.2 µM (inactive)	35.4 µM (inactive)	33.3 µM (inactive)	31.3 µM (inactive)	99.8 µM (inactive)	> 100 µM (inactive)	> 85.9 µM (inactive)	> 100 µM (inactive)
O=c1c2ncn(C3CCCCO3)c2n(-c2ccccc2)c(=S)n1-c1ccccc1 (configuration not stated)	42.4 µM (inactive)	31.9 µM (inactive)	30.1 µM (inactive)	7.8 µM (inactive)	31.4 µM (inactive)	35.1 µM (inactive)	> 65.9 µM (inactive)	> 74.3 µM (inactive)	9.91 µM (inactive)	39.5 µM (inactive)	> 68.7 µM (inactive)	18.5 µM (inactive)	23 µM (inactive)	> 52.7 µM (inactive)	26.2 µM (inactive)	> 70 µM (inactive)	28.6 µM (inactive)	40.4 µM (inactive)
c1ccc2c(c1)ncn2C1CCCCO1 (configuration not stated)	–	> 100 µM (inactive)	> 100 µM (inactive)	> 100 µM (inactive)	> 100 µM (inactive)	> 100 µM (inactive)	> 100 µM (inactive)	> 100 µM (inactive)	> 100 µM (inactive)	> 100 µM (inactive)	> 100 µM (inactive)	> 100 µM (inactive)	> 100 µM (inactive)	> 100 µM (inactive)	> 100 µM (inactive)	> 100 µM (inactive)	> 100 µM (inactive)	> 100 µM (inactive)
Cc1cc2c(c(O)c1-c1c(C)cc(O)c3c1C(=O)C=CC3=O)C(=O)C=CC2=O	0.631 µM (active)	0.855 µM (active)	2.49 µM (inactive)	0.757 µM (active)	3.05 µM (inactive)	1.63 µM (inactive)	1.59 µM (inactive)	4.01 µM (inactive)	0.413 µM (active)	1.59 µM (inactive)	0.0337 µM (active)	2.13 µM (inactive)	2.61 µM (inactive)	0.226 µM (active)	2 µM (inactive)	3.13 µM (inactive)	2.26 µM (inactive)	3 µM (inactive)
Nc1cccc(/C=C/CN2CCN(CCOC(c3ccccc3)c3ccccc3)CC2)c1	19.8 µM (inactive)	15.8 µM (inactive)	14.3 µM (inactive)	12.3 µM (inactive)	16.1 µM (inactive)	13.6 µM (inactive)	15.9 µM (inactive)	12.6 µM (inactive)	12.6 µM (inactive)	16.4 µM (inactive)	3.11 µM (inactive)	17.4 µM (inactive)	16.1 µM (inactive)	3 µM (inactive)	15 µM (inactive)	3.52 µM (inactive)	16.3 µM (inactive)	13.2 µM (inactive)
